Measurements reported in patent US8846708B2, “Salt of a pyrimidin derivative” (Laboratorios Senosiain S.A. de C.V., priority 2010, dated 2014).

Tests used:
[1] = cited from earlier work
physchem = assay: physchem
Description: Additionally, a comparative solubility test was performed between rosuvastatin calcium and rosuvastatin lysine.

[2] = Description / flowability of the salt powder; format: physicochemical
[3] = in vivo; cited from earlier work
proteins = conditions: cited from earlier work

Solubility, Methanol (physchem)	solubility (physchem; aqueous buffer) [µg/mL]	solubility (physchem; organic solvent or mixture) [µg/mL]	solubility (physchem; water) [µg/mL]	Description: flowability [2]	Compound	Solubility in water [1]	Solubility, HCl 10% (physchem)	Absolute bioavailability [3]	Excretion in feces [3] [%]	Excretion in urine [3] [%]	Binding to proteins (proteins) [%]
–	–	–	–	–	CC(C)c1nc(N(C)S(C)(=O)=O)nc(-c2ccc(F)cc2)c1/C=C/[C@@H](O)C[C@@H](O)CC(=O)O [Rosuvastatin, (3R,5S,6E)-7-[4-(4-fluorophenyl)-2-(N-methylmethanesulfonamide)-6-(propan-2-yl)pyrimidin-5-yl]-3,5-dihydroxihept-6-enoic acid]	slightly soluble in water	–	–	–	–	–
Taffy	600	10000	5300	without flowability.	CC(C)c1nc(N(C)S(C)(=O)=O)nc(-c2ccc(F)cc2)c1/C=C/[C@@H](O)C[C@@H](O)CC(=O)O [rosuvastatin calcium, (3R,5S,6E)-7-[4-(4-fluorophenyl)-2-(N-methylmethanesulfonamide)-6-(propan-2-yl)pyrimidin-5-yl]-3,5-dihydroxihept-6-enoic acid]	–	It sticks to the bottom of the container.	approximately 20%	90	10	88
